Assay results reported in patent EP4461773A1, “FLUORESCENT HEMICRYPTOPHANES AND USES THEREOF” (Ecole Centrale de Marseille, priority 2023, dated 2024).
Where two headings read alike, the source gives them in different places.

Key:
[1] = comparative data, stated as obtained according to the same procedure; footnotes cite New J. Chem. 2019 and GFP congress 2022; cited from earlier work
[2] = in water at pH 7, estimated; cited from earlier work
[3] = Fluorescence titration with chlordecone, binding constant calculated with Bindfit; conditions: compounds of the invention; DMSO+2% H2O, 25 °C, host 5.0 µM or 0.5 µM, chlordecone 5.0 mM additions
Method: A solution of each hemicryptophane (2.5 mL, 5.0 µM for hosts 9 and 5 and 0.5 µM for host 8) in DMSO+2% H2O was transferred into the quartz cuvette. Successive additions of a concentrated chlordecone solution (5.0 mM in the same solvent mixture) were performed. The final volume of the solution was almost unchanged (2.5 mL) since very small volumes of chlordecone solution were added. The solutions were mixed and incubated for 30 s before irradiation at their maximum of excitation (274 nm, 297 nm and 349 nm for hosts 9, 5, 8 respectively) at 25 °C. The corresponding emission values during titration were then recorded. Fluorescence emission spectra are reproduced at Figures 1A (5), 1B (8), and 1C (9) and the relative fluorescence intensities as a function of the [chlordecone]/[hemicryptophane] are reproduced at Figures 2A (5), 2B (8), and 2C (9).
Binding constant (Ka) were calculated using Bindfit program and results are reproduced at Table 1 below, further including comparative data obtained according to the same procedure.

SMILES | Binding constant (Ka) [1] | also measured
COc1cc2c3cc1OCCOc1ccc(cc1)CNC(=O)CN1CC(=O)NCc4ccc(cc4)OCCOc4cc(c(cc4OC)C3)Cc3cc(OC)c(cc3C2)OCCOc2ccc(cc2)CNC(=O)C1 | [drawing 21] Ka = 126 L/mol ± 3.7% | 
COc1cc2c3cc1OCCOc1ccc(cc1)CNCCN1CCNCc4ccc(cc4)OCCOc4cc(c(cc4OC)C3)Cc3cc(OC)c(cc3C2)OCCOc2ccc(cc2)CNCC1 | [drawing 22] Ka = 2.1 x 10^4 L/mol ± 3.4% | 
COc1cc2c3cc1OCCOc1ccc4cc(ccc4c1)CNCCN1CCNCc4ccc5cc(ccc5c4)OCCOc4cc(c(cc4OC)C3)Cc3cc(OC)c(cc3C2)OCCOc2ccc3cc(ccc3c2)CNCC1 | [drawing 23] Ka = 6.4 x 10^3 L/mol ± 4.4% | 
C(#Cc1cc2c3cc1OCCOc1ccc(cc1)CNCCN1CCNCc4ccc(cc4)OCCOc4cc(c(cc4C#Cc4ccccc4)C3)Cc3cc(C#Cc4ccccc4)c(cc3C2)OCCOc2ccc(cc2)CNCC1)c1ccccc1 | [drawing 25] Ka = 1.4 x 10^5 L/mol ± 12% | 
COc1cc2c3cc1OCCOc1ccc(cc1-c1ccccc1)CNCCN1CCNCc4ccc(c(-c5ccccc5)c4)OCCOc4cc(c(cc4OC)C3)Cc3cc(OC)c(cc3C2)OCCOc2ccc(cc2-c2ccccc2)CNCC1 | [drawing 26] Ka = 1.9 x 10^4 L/mol ± 75% | 
COc1cc2c3cc1OCCOc1ccc(cc1)CN(S(=O)(=O)c1cccc4c(N(C)C)cccc14)CCN1CCN(S(=O)(=O)c4cccc5c(N(C)C)cccc45)Cc4ccc(cc4)OCCOc4cc(c(cc4OC)C3)Cc3cc(OC)c(cc3C2)OCCOc2ccc(cc2)CN(S(=O)(=O)c2cccc3c(N(C)C)cccc23)CC1 | [drawing 27] Ka = 3.0 x 10^3 L/mol ± 6.9% | 
O=C1C2(Cl)C3(Cl)C4(Cl)C(Cl)(Cl)C5(Cl)C3(Cl)C1(Cl)C5(Cl)C24Cl (centres unmarked) [Chlordecone] |  | solubility [2]: around 2 mg/L
COc1cc2c3cc1OCCNCc1cc(-c4ccccc4)ccc1OCc1cc4cc(c1)COc1ccc(-c5ccccc5)cc1CNCCOc1cc(c(cc1OC)Cc1cc(c(OC)cc1C3)OCCNCc1cc(-c3ccccc3)ccc1OC4)C2 [compound 9] |  | Binding constant (Ka) [3]: [drawing 20] Ka = 4.6 x 10^5 L/mol ± 17%
